Assay results published in PMC7734590, “Identification of a Selective RelA Inhibitor Based on DSE-FRET Screening Methods” (International Journal of Molecular Sciences, 2020).
Counter-ions that a name gives are not always drawn. Like-named read-outs stand apart in the source and are kept apart here.

Experiments:
p52 = biological target: T1, p52 (Homo sapiens, UniProt Q00653); assay: DSE-FRET p52–DNA binding inhibition; format: biochemical; conditions: for Hit Judgement of: p52: 1 = judged hit after retest
T1 sequence (Q00653 1-454 limits assumed): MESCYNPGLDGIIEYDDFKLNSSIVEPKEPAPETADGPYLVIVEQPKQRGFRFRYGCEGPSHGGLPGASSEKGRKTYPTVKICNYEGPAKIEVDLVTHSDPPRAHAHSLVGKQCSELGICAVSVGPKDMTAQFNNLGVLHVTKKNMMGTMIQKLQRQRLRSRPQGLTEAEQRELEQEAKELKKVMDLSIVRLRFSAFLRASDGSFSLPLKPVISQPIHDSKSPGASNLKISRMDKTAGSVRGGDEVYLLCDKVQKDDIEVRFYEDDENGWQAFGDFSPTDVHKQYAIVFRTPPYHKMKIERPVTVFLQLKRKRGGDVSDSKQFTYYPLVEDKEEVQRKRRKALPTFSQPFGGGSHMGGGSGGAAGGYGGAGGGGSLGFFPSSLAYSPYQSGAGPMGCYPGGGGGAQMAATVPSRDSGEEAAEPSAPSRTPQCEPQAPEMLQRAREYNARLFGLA
Procedure: Plate-based (384 scale) DNA-binding experiments were carried out with 0.1 µL of 2 mM or 1 mg/mL compound, 2 µL of 80 nM NF-D1 (consisting of NF-01F and NF-14D), 1 µL of 20 ng/µL poly dI-dC, and 6.9 µL of 3.2 pmol protein in binding buffer (10 mM 4-(2-hydroxyethyl)-1-piperazineethanesulfonic acid (HEPES)–NaOH pH 7.9, 50 mM KCl, 0.1 mM ethylenediaminetetraacetic acid (EDTA), 2.5 mM dithiothreitol (DTT), 10% glycerol, and 0.05% Nonidet P40). The plates were incubated for 30 min at room temperature, after which 10 µL of NF-D2 (consisting of NF-02 and NF-13) was added. The plates were centrifuged at 1000 rpm for 30 s, followed by shaking for 30 s using a plate shaker (Biotec). Fluorescence was measured at 528 nm, after excitation at 485 nm, using a multiplate reader (Biotec) over a period of 60 min.

RelA = RelA (Homo sapiens, UniProt Q04206); assay: DSE-FRET RelA–DNA binding inhibition; format: biochemical; design: Kinetic assay RelA Inhibition % ΔRFU(60 min-0 min) / RelA HTS % Inhibition / RelA Retest % Inhibition Run1 / RelA Retest % Inhibition Run2 / RelA Retest % Inhibition Avg. / Kinetic assay RelA % Inhibition ΔRFU(60 min-0 min): dose or concentration left out as unconfirmed; conditions: for Hit Judgement of: RelA: 1 = judged hit after retest
Sequence of RelA (Q04206 19-306 limits assumed): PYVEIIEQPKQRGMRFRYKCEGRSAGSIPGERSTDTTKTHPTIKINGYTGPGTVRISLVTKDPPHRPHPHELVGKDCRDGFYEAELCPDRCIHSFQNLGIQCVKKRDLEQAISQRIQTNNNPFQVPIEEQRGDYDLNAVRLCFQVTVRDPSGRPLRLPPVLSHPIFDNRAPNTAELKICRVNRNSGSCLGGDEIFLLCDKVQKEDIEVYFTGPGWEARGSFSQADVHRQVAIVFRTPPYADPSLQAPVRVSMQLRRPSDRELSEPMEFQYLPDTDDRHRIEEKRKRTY

[1] = HTS, known drugs, 10 µM, read-out: p52 HTS % Inhibition @ 10 µM
[2] = retest, Run1, 10 µM, read-out: p52 Retest % Inhibition @ 10 µM Run1
[3] = retest, Run2, 10 µM, read-out: p52 Retest % Inhibition @ 10 µM Run2
[4] = retest, average of Run1 and Run2, 10 µM, read-out: p52 Retest % Inhibition @ 10 µM Avg.
[5] = HTS, known drugs, 10 µM, read-out: RelA HTS % Inhibition @ 10 µM
[6] = retest, Run1, 10 µM, read-out: RelA Retest % Inhibition @ 10 µM Run1
[7] = retest, Run2, 10 µM, read-out: RelA Retest % Inhibition @ 10 µM Run2
[8] = retest, average of Run1 and Run2, 10 µM, read-out: RelA Retest % Inhibition @ 10 µM Avg.
[9] = kinetic assay, 60 min-0 min, 10 µM, read-out: Kinetic assay @ 10 µM p52 % Inhibition ΔRFU(60 min-0 min)
[10] = kinetic assay, 60 min-0 min, 10 µM, read-out: Kinetic assay @ 10 µM RelA % Inhibition ΔRFU(60 min-0 min)
[11] = HTS, 5 µg/mL, NPDepo hits, read-out: RelA HTS % Inhibition @ 5 µg/mL
[12] = Retest Run1, 5 µg/mL, read-out: RelA Retest % Inhibition @ 5 µg/mL Run1
[13] = Retest Run2, 5 µg/mL, read-out: RelA Retest % Inhibition @ 5 µg/mL Run2
[14] = Retest average of Run1 and Run2, 5 µg/mL, read-out: RelA Retest % Inhibition @ 5 µg/mL Avg.
[15] = kinetic assay, 5 µg/mL, ΔRFU 60 min-0 min, read-out: Kinetic assay @ 5 µg/mL RelA Inhibition % ΔRFU(60 min-0 min)

| Molecule | inhibition at 10 µM (p52; [1]) | Kinetic assay p52 % Inhibition ΔRFU(60 min-0 min) (p52; kinetic assay, 60 min-0 min) | inhibition at 10 µM (p52; [2]) | inhibition at 10 µM (p52; [3]) | inhibition at 10 µM (p52; [4]) | inhibition at 10 µM (RelA; [5]) | Kinetic assay RelA % Inhibition ΔRFU(60 min-0 min) (RelA; kinetic assay, 60 min-0 min) | inhibition at 10 µM (RelA; [6]) | inhibition at 10 µM (RelA; [7]) | inhibition at 10 µM (RelA; [8]) | other results |
| --- | --- | --- | --- | --- | --- | --- | --- | --- | --- | --- | --- |
| CCN(CC)CCCC(C)Nc1c2ccc(Cl)cc2nc2ccc(OC)cc12 (stereo not shown) [QUINACRINE HYDROCHLORIDE] | 70.9% | -16% | 60.7% | 69.7% | 65.2% | 56.7% | -18% | 60.6% | 66.3% | 63.5% | – |
| CCN(CC)CCCC(C)Nc1c2ccc(Cl)cc2nc2ccc(OC)cc12 (stereo not shown) [Quinacrine dihydrochloride dihydrate] | – | -17% | – | – | – | – | -17% | – | – | – | – |
| COc1ccc2[nH]cc(C3=CCNCC3)c2c1.COc1ccc2[nH]cc(C3=CCNCC3)c2c1.O=C(O)CCC(=O)O [RU 24969 hemisuccinate] | – | -22% | – | – | – | – | -19% | – | – | – | – |
| Cn1cc(C2=C(c3ccc(Cl)cc3Cl)C(=O)NC2=O)c2ccccc21 [SB 216763] | 18.6% | – | 64.6% | 76.1% | 70.3% | 146% | – | 73.3% | 82.1% | 77.7% | inhibition at 10 µM (p52; [9]): -10%; inhibition at 10 µM (RelA; [10]): -12% |
| O=C1NC(=O)c2c1c1c3ccccc3n3c1c1c2c2ccccc2n1C1CCC3O1 [SB 218078] | – | 5% | – | – | – | – | 13% | – | – | – | – |
| Cc1[nH]c(/C=C2\C(=O)Nc3ccccc32)c(C)c1CCC(=O)O [SU 6668] | 33.8% | – | 29.3% | 32.3% | 30.8% | 29.9% | – | 32.3% | 36.4% | 34.3% | inhibition at 10 µM (p52; [9]): -12%; inhibition at 10 µM (RelA; [10]): -15% |
| O=C(O)c1cc(O)c2c(c1)[C@H]([C@H]1c3cc(C(=O)O)cc(O)c3C(=O)c3c(O[C@@H]4O[C@H](CO)[C@@H](O)[C@H](O)[C@H]4O)cccc31)c1cccc(O[C@@H]3O[C@H](CO)[C@@H](O)[C@H](O)[C@H]3O)c1C2=O [Sennoside A] | – | – | – | – | – | – | – | – | – | – | Hit Judgement of: p52 (p52): 1; Hit Judgement of: RelA (RelA): 1; inhibition at 5 µg/mL (RelA; [11]): 85.4%; inhibition at 5 µg/mL (RelA; [12]): 88.7%; inhibition at 5 µg/mL (RelA; [13]): 100%; inhibition at 5 µg/mL (RelA; [14]): 94.6%; inhibition at 5 µg/mL (RelA; [15]): 31% |
| O=C(O)c1cc(O)c2c(c1)[C@@H]([C@H]1c3cc(C(=O)O)cc(O)c3C(=O)c3c(O[C@@H]4O[C@H](CO)[C@@H](O)[C@H](O)[C@H]4O)cccc31)c1cccc(O[C@@H]3O[C@H](CO)[C@@H](O)[C@H](O)[C@H]3O)c1C2=O [Sennoside B] | – | – | – | – | – | – | – | – | – | – | Hit Judgement of: p52 (p52): 1; Hit Judgement of: RelA (RelA): 1; inhibition at 5 µg/mL (RelA; [11]): 87.4%; inhibition at 5 µg/mL (RelA; [12]): 74.5%; inhibition at 5 µg/mL (RelA; [13]): 85.1%; inhibition at 5 µg/mL (RelA; [14]): 79.8%; inhibition at 5 µg/mL (RelA; [15]): 73% |
| O=C(O[C@H]1C[C@H]2CC[C@@H](C1)[N+]21CCCC1)C(O)(c1ccccc1)c1ccccc1 [TROSPIUM CHLORIDE] | 116% | – | – | – | – | 108% | – | – | – | – | – |
| CC[C@@]1(O)C(=O)OCc2c1cc1n(c2=O)Cc2cc3c(CN(C)C)c(O)ccc3nc2-1 [Topotecan] | 74.5% | – | 94.6% | 104% | 99.1% | 91.4% | – | 99.3% | 109% | 104% | inhibition at 10 µM (p52; [9]): -3.67%; inhibition at 10 µM (RelA; [10]): -4.46% |
| Cc1cc(-c2ccc(/N=N/c3c(S(=O)(=O)O)cc4cc(S(=O)(=O)O)cc(N)c4c3O)c(C)c2)ccc1/N=N/c1c(S(=O)(=O)O)cc2cc(S(=O)(=O)O)cc(N)c2c1O [Trypan blue] | – | – | – | – | – | – | – | – | – | – | Hit Judgement of: p52 (p52): 1; inhibition at 5 µg/mL (p52; HTS, 5 µg/mL, NPDepo hits, read-out: p52 HTS % Inhibition @ 5 µg/mL): 2.8%; inhibition at 5 µg/mL (p52; Retest Run1, 5 µg/mL, read-out: p52 Retest % Inhibition @ 5 µg/mL Run1): 15.1%; inhibition at 5 µg/mL (p52; Retest Run2, 5 µg/mL, read-out: p52 Retest % Inhibition @ 5 µg/mL Run2): 16.4%; inhibition at 5 µg/mL (p52; Retest average of Run1 and Run2, 5 µg/mL, read-out: p52 Retest % Inhibition @ 5 µg/mL Avg.): 15.8%; inhibition at 5 µg/mL (p52; kinetic assay, 5 µg/mL, ΔRFU 60 min-0 min, read-out: Kinetic assay @ 5 µg/mL p52 Inhibition % ΔRFU(60 min-0 min)): 7%; Hit Judgement of: RelA (RelA): 1; inhibition at 5 µg/mL (RelA; [11]): 54.8%; inhibition at 5 µg/mL (RelA; [12]): 62%; inhibition at 5 µg/mL (RelA; [13]): 69%; inhibition at 5 µg/mL (RelA; [14]): 65.5%; inhibition at 5 µg/mL (RelA; [15]): 26% |
| O=c1cc[nH]c(=O)[nH]1 [URACIL] | 30.5% | – | 0.245% | 0.9% | 0.6% | 1.1% | – | 0.0644% | 0.634% | 0.349% | inhibition at 10 µM (p52; [9]): -1%; inhibition at 10 µM (RelA; [10]): -1.11% |
| COc1cc2c(cc1OC)-c1cc3nc4ccccc4nc3n1C(C)(C)C2 [YM 90709] | – | -1.43% | – | – | – | – | -3.67% | – | – | – | – |
| SN 38 | – | -2% | – | – | – | – | -0.814% | – | – | – | – |
